For one experiment, the system named is HeLa. Put plainly: Antiproliferative activity against human HeLa cells assessed as reduction in cell viability after 48 hrs by MTT assay. It is filed as functional, cell-based. For orientation: Tetrazolium dyes change colour on reduction, which living cells bring about.
In a further experiment the test system is HCT-116. The experiment in a line: cells. To be noted: Homo sapiens, HCT-116, 48 h.
Experiment [1] relates to MCF7. The experiment in a line: Antiproliferative activity against human MCF7 cells assessed as reduction in cell viability after 48 hrs by MTT assay. Format: functional, cell-based. To be noted: MCF7, 48 h.
Another experiment relates to WI-38. Put plainly: cells. To be noted: Homo sapiens, WI-38, 48 h.
In experiment [2] the test system is MCF7. Put plainly: Induction of cell cycle arrest in human MCF7 cells assessed as cell accumulation at G2/M phase at 2 uM after 24 hrs by PI-staining based flow cytometry (reference value: 10.84%). Format: functional. In general terms: In flow cytometry, cells or beads pass a laser one at a time.
Experiment [3] has as its system MCF7. The experiment in a line: Induction of apoptosis in human MCF7 cells assessed as early apoptotic cells at 2 uM after 24 hrs by Annexin V-FITC/propidium iodide staining based flow cytometric analysis (reference value: 0.82%). It is filed as functional.
Experiment [4] concerns MCF7. Put plainly: Induction of cell cycle arrest in human MCF7 cells assessed as debris content at 2 uM after 24 hrs by PI-staining based flow cytometry (reference value: 2.09%). Format: functional.
The test system of experiment [5] is MCF7. The experiment in a line: Induction of apoptosis in human MCF7 cells assessed as necrotic cells at 2 uM after 24 hrs by Annexin V-FITC/propidium iodide staining based flow cytometric analysis (reference value: 0.43%). Format: functional.
In experiment [6] the test system is MCF7. The experiment in a line: Induction of cell cycle arrest in human MCF7 cells assessed as cell accumulation at G0/G1 phase at 2 uM after 24 hrs by PI-staining based flow cytometry (reference value: 53.72%). Format: functional.
For another experiment, the target named is Heat shock protein HSP90 (Homo sapiens, UniProt P07900+P08238). The experiment in a line: Inhibition of HSP90 ATPase activity (unknown origin). It is filed as protein assay.
The subject of experiment [7] is MCF7. The experiment in a line: Induction of cell cycle arrest in human MCF7 cells assessed as cell aggregates at 2 uM after 24 hrs by PI-staining based flow cytometry (reference value: 2.28%). It is filed as functional.
In experiment [8] the test system is MCF7. The experiment in a line: Induction of cell cycle arrest in human MCF7 cells assessed as cell accumulation at S phase at 2 uM after 24 hrs by PI-staining based flow cytometry (reference value: 35.44%). Format: functional.
In experiment [9] the test system is MCF7. Put plainly: Induction of cell cycle arrest in human MCF7 cells assessed as cell accumulation at Pre-G1 phase at 2 uM after 24 hrs by PI-staining based flow cytometry (reference value: 1.64%). Format: functional.
The test system of experiment [10] is MCF7. Put plainly: Induction of apoptosis in human MCF7 cells assessed as late apoptotic cells at 2 uM after 24 hrs by Annexin V-FITC/propidium iodide staining based flow cytometric analysis (reference value: 0.39%). Format: functional.

Description for HCT-116: Antiproliferative activity against human HCT116 cells assessed as reduction in cell viability after 48 hrs by MTT assay
Description for WI-38: Cytotoxicity against human WI-38 cells assessed as reduction in cell viability after 48 hrs by MTT assay

Consider `O=c1c2ccccc2nc(SCCCSC(=S)N2CCN(C3CCCCC3)CC2)n1-c1ccccc1`, for which the concentration for half-maximal inhibition (IC50) (usually the concentration that gives 50% inhibition) in the experiment with HeLa is 64.5 µM; in the experiment with HCT-116, 73.8 µM; with MCF7 [1], 45.9 µM; in the experiment on WI-38, over 100 µM.
With `C=CCN1CCN(C(=O)CSc2nc3ccccc3c(=O)n2-c2ccccc2)CC1`, the IC50 was found to be 13.4 µM with HeLa; 15.7 µM in the experiment on HCT-116; 8.56 µM in the experiment on MCF7 [1]; 1.58 µM on Heat shock protein HSP90; 12.2 µM with WI-38. Moreover, the Activity amounted to 38.89% with MCF7 [2]; 4.94% with MCF7 [3]; 2.63% in the experiment with MCF7 [4]; 2.31% with MCF7 [5]; 31.59% with MCF7 [6]; 2.21% in the experiment with MCF7 [7]. The figures for the Activity in the experiment with MCF7 [8], with MCF7 [9] and with MCF7 [10] were 29.52%, 22.42% and 15.17%, respectively.
Consider `O=C(CSc1nc2ccccc2c(=O)n1-c1ccccc1)N1CCCCC1`, for which the IC50 came to 22.5 µM in the experiment on HeLa, 25.3 µM in the experiment with HCT-116, 13.8 µM in the experiment on MCF7 [1] and 65 µM in the experiment with WI-38.
On to `CC(C)(C)OC(=O)N1CCN(C(=O)CSc2nc3ccccc3c(=O)n2-c2ccccc2)CC1`, for which the IC50 in the experiment on HeLa is 34.5 µM; in the experiment on HCT-116, 48.3 µM; in the experiment on MCF7 [1] it was 25.9 µM; with WI-38, 62.6 µM.
The matching figures for `O=c1c2ccccc2nc(SCCCSC(=S)N2CCCCC2)n1-c1ccccc1`: 50.3 µM, 63.4 µM, 38.5 µM and over 100 µM.
In the case of `C=CCN1CCN(C(=S)SCCCSc2nc3ccccc3c(=O)n2-c2ccccc2)CC1`, the IC50 in the experiment on HeLa stood at 28.7 µM; with HCT-116, 32.1 µM; in the experiment on MCF7 [1], 17.8 µM; with WI-38, 82.5 µM.
The matching figures for `O=C(CSc1nc2ccccc2c(=O)n1-c1ccccc1)N1CCN(C2CCCCC2)CC1`: 53.6 µM, 60.9 µM, 35.9 µM and 78.4 µM.
The matching figures for `O=c1c2ccccc2nc(SCCCCl)n1-c1ccccc1`: 16.7 µM, 23.2 µM, 12.6 µM and 36.7 µM.
Take `O=C(CSc1nc2ccccc2c(=O)n1-c1ccccc1)N1CCOCC1`: the IC50 in the experiment with HeLa was 18.2 µM; in the experiment on HCT-116, 19.8 µM; in the experiment with MCF7 [1], 11.7 µM; against Heat shock protein HSP90, 3.21 µM; in the experiment with WI-38, 16 µM.
The matching figures for `CCOc1ccccc1N1CCN(C(=S)SCCCSc2nc3ccccc3c(=O)n2-c2ccccc2)CC1`: 20.6 µM, 18.1 µM, 9.48 µM, 3.41 µM and 33.3 µM.
For `CCN1CCN(C(=O)CSc2nc3ccccc3c(=O)n2-c2ccccc2)CC1`, the half-inhibitory concentration (IC50) stood at 37.5 µM in the experiment with HeLa, 44.3 µM in the experiment with HCT-116, 23.9 µM in the experiment with MCF7 [1] and 82 µM with WI-38.
On to `CC(=O)N1CCN(C(=O)CSc2nc3ccccc3c(=O)n2-c2ccccc2)CC1`, for which the IC50 in the experiment with HeLa came to 12 µM; with HCT-116 it was 10.3 µM; with MCF7 [1] it was 7.35 µM; at Heat shock protein HSP90, 14.36 µM; with WI-38 it was 16 µM.
In the case of `CCN1CCN(C(=S)SCCCSc2nc3ccccc3c(=O)n2-c2ccccc2)CC1`, the IC50 was 79.6 µM in the experiment on HeLa, 88 µM in the experiment with HCT-116, 64.3 µM with MCF7 [1] and over 100 µM with WI-38.
The matching figures for `CN1CCN(C(=S)SCCCSc2nc3ccccc3c(=O)n2-c2ccccc2)CC1`: 33.3 µM, 32.8 µM, 19.3 µM and 70.5 µM.
The corresponding values for `CC(=O)N1CCN(C(=S)SCCCSc2nc3ccccc3c(=O)n2-c2ccccc2)CC1` are 54.9 µM, 37 µM, 22.4 µM and over 100 µM.
For `O=c1c2ccccc2nc(SCCCSC(=S)N2CCN(c3ccccc3)CC2)n1-c1ccccc1`, the IC50 in the experiment on HeLa stood at 26.1 µM; in the experiment on HCT-116 it was 27.6 µM; in the experiment on MCF7 [1] it was 15.5 µM; in the experiment with WI-38, 29.8 µM.
In the case of `O=C(CSc1nc2ccccc2c(=O)n1-c1ccccc1)N1CCN(c2ncccn2)CC1`, the IC50 in the experiment on HeLa was found to be 76.9 µM; in the experiment on HCT-116 it was 78.7 µM; in the experiment with MCF7 [1], 47.5 µM; with WI-38, 94.5 µM.
The corresponding values for `O=c1c2ccccc2nc(SCCCSC(=S)N2CCN(c3ncccn3)CC2)n1-c1ccccc1` are 74.4 µM, 79.6 µM, 49.3 µM and over 100 µM.

The values above are taken from ChEMBL document CHEMBL4725249, “Quinazoline Based HSP90 Inhibitors: Synthesis, Modeling Study and ADME Calculations Towards Breast Cancer Targeting” (Bioorg Med Chem Lett, 2020).
